Molecules are shown by their SMILES. Bounds are passed on as bounds.

The test system of assay [1] is MT4. Put plainly: Inhibitory activity against HIV-1 replication in MT-4 cells; not cytotoxic. In kind it is functional, cell-based. The following applies: Homo sapiens.
Assay [2] concerns MT4. Put plainly: Inhibitory activity of compound was determined against HIV-1 replication in MT-4 cells; […]. The class given is functional, cell-based. The following applies: Homo sapiens.
Assay [3] relates to MT4. Briefly: Inhibitory activity of compound was determined against HIV-1 replication in MT-4 cells. The class given is functional, cell-based. The following applies: Homo sapiens.
The test system of assay [4] is MT4. Put plainly: Compound was tested for its […] in MT-4 cells. The class given is functional. The following applies: Homo sapiens, read-out: CD50 (the source's name).
In assay [5] the test system is MT4. Put plainly: Inhibitory activity of compound was determined against HIV-1 replication in MT-4 cells; weak activity. The class given is functional, cell-based. The following applies: Homo sapiens.
For assay [6], the system named is MT4. Briefly: Inhibitory activity against HIV-1 replication in MT-4 cells; Not cytotoxic. The class given is functional, cell-based. Conditions: Homo sapiens.

With `Cc1cn([C@H]2CO[C@@H](CP(=O)(O)O)O2)c(=O)[nH]c1=O`, the IC50 in assay [1] is above 332 µM. The compound also displayed an EC50 in assay [2] above 332 µM. In turn, `Nc1ccn([C@H]2CO[C@@H](CP(=O)(O)O)O2)c(=O)n1` had an IC50 in assay [1] above 332 µM. In assay [2], this compound showed an EC50 of 312 µM. As to `Cc1cn([C@H]2CO[C@H](CP(=O)(O)O)O2)c(=O)[nH]c1=O`, the IC50 in assay [1] was above 332 µM. This compound also registered an EC50 in assay [2] above 332 µM. In assay [3], `Cc1cn(C2COC(CO[PH](=O)O)O2)c(=O)[nH]c1=O` (stereo not given) showed an EC50 of 51 µM. Besides, the CC50 in assay [4] stood at 342 µM.

With `CC(=O)Nc1ccn(C2COC(CP(=O)(O)O)O2)c(=O)n1` (stereo not given), a half-maximal effect in assay [5] (EC50) was put at 312 µM. In the case of `Nc1nc(O)c2ncn([C@H]3CO[C@H](CP(=O)(O)O)O3)c2n1`, the IC50 in assay [6] was above 332 µM. In assay [2], the EC50 is above 332 µM.

`Nc1nc(O)c2ncn([C@H]3CO[C@@H](CP(=O)(O)O)O3)c2n1`: the IC50 in assay [1] was above 332 µM. In addition, the EC50 in assay [2] was above 332 µM. The compound `Nc1ccn([C@H]2CO[C@H](CP(=O)(O)O)O2)c(=O)n1` came in with a half-maximal inhibitory concentration (IC50) in assay [1] above 332 µM. The EC50 in assay [2] is above 332 µM.

For orientation: IC50 means the concentration at which inhibition is half-maximal. Read a high IC50 as a need for much substance. As a reminder, the EC50 is the concentration at which the effect is half-maximal. A high value points to a need for much substance.

Source of the values: ChEMBL document CHEMBL1151090, “Synthesis of racemic 2-phosphonomethyl-1,3-dioxolane nucleoside analogues as potential antiviral agents” (Bioorg Med Chem Lett, 1995).
